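Test compounds were applied to cells in 96-well plates for 48 hours at 5 doses. At the TGI there is no net growth.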
Assays:
Experiment in all cases: NCI-60 cell line screen, 48 h
[1] = test system: U251 CNS
[2] = test system: M14 melanoma
[3] = test system: SF-268 CNS
[4] = test system: SW-620 colon
[5] = test system: UO-31 renal
[6] = test system: LOX IMVI melanoma
[7] = test system: MDA-MB-435
[8] = test system: MCF7 breast
[9] = test system: MOLT-4 leukemia
[10] = test system: NCI-H522 lung
[11] = test system: SF-295 CNS
[12] = test system: HL-60(TB) leukemia
[13] = test system: HS 578T breast
[14] = test system: NCI-H23 lung
[15] = test system: MALME-3M melanoma
[16] = test system: K-562 leukemia

Compound	TGI [1] [µM]	TGI [2] [µM]	TGI [3] [µM]	TGI [4] [µM]	TGI [5] [µM]	TGI [6] [µM]	TGI [7] [µM]	TGI [8] [µM]	TGI [9] [µM]	TGI [10] [µM]	TGI [11] [µM]	TGI [12] [µM]	TGI [13] [µM]	TGI [14] [µM]	TGI [15] [µM]	TGI [16] [µM]
Cc1ccc(C(=O)Oc2ccc(/C=C3\CCC/C(=C\c4ccc(OC(=O)c5ccc(C)cc5)cc4)C3=O)cc2)cc1	> 100	> 100	> 100	> 100	> 100	> 100	> 100	> 100	> 100	> 100	> 100	> 100	> 100	> 100		
Cc1ccsc1C(=S)Nc1ccc(Cl)c(/C=N/OC(C)C)c1	> 100	> 100	> 100	> 100	> 100	> 100	> 100	62.6	35.2	> 100	> 100	34.6	> 100	> 100	98.9	
O=[N+]([O-])C(/C=C(\Cl)[N+](=O)[O-])=C(N1CCCCC1)N1CCCCC1	> 100	57	> 100		75.7	> 100	30.6	18.9	> 100	> 100	> 100	41.7	> 100	> 100	21.4	66.9
CCOC(=O)N/N=C(\CC)OCC		> 100	> 100		> 100	> 100		> 100	> 100	> 100	> 100	> 100	> 100		> 100	> 100
COc1ccc2c(c1OC)C(=O)N/C2=C\c1c(CCN(C)C)cc2c(c1OC)OCO2	> 100	> 100	> 100	> 100			> 100	> 100	> 100	> 100	> 100	> 100	> 100	> 100	> 100	> 100
CCOC(=O)c1sc2nc1CSc1sc(=S)sc1SCc1nc(sc1C(=O)OCC)-c1nc(c(C(=O)OCC)s1)CSc1sc(=S)sc1SCc1nc-2sc1C(=O)OCC	> 10		> 10	> 10	> 10	> 10	> 10	> 10	> 10	> 10	> 10	> 10	> 10	> 10	> 10	> 10
NC(=O)Cn1c(=O)oc2cc(C(=O)CN3CCOCC3)ccc21	> 100	> 100	> 100	> 100		> 100	> 100	> 100	> 100		> 100	> 100	> 100		> 100	> 100
COC(=O)/N=[N+](\[O-])C(c1ccccc1)c1ccccc1	> 100	> 100	> 100	> 100	70.9	> 100	> 100	> 100	> 100	> 100		> 100	> 100	> 100	> 100	> 100
C[N+]12C=CC=C1C(N1CCCC1)c1scc(-c3ccc(F)cc3)c12 (centres undefined)	> 100	> 100	> 100	> 100	> 100	> 100	> 100	88.6	78.1	> 100	> 100		> 100		> 100	26.5
CN(C)CC1CCC/C(=C\c2ccccc2)C1=O (centres undefined)	28.7		7.44	3.07	5.08	3.2	3.54	2.18	> 100	2.95	35.2	> 100	9.87	22.8	3.46	
O=S(=O)(CCC[C@H]1[C@@H](CCOCc2ccccc2)C2CCCN1O2)c1ccccc1 (some centres undefined)	> 100	> 100	> 100	> 100	> 100		> 100	> 100	> 100	> 100	> 100		> 100	> 100	> 100	> 100
O=C(CN=C(CN(c1ccccc1)c1ccccc1)Oc1ccc(Cl)cc1Cl)n1ccnc1	> 100	> 100	> 100	> 100	> 100	> 100	> 100	> 100	> 100		> 100		> 100	> 100	> 100	> 100

Reference: PubChem BioAssay (NCI)
